{
  "source": "patent US20090061515A1",
  "about": "“Methods of inhibiting or suppressing cellular proliferation” (priority 2007, published 2009)",
  "test_system": "Normal Human Dermal Fibroblast (NHDF) cells",
  "assay": "Cell count and visual morphology of NHDF after exposure and after re-plating (Example 3)",
  "assay_type": "cell-based",
  "conditions": "for cell count: NHDF seeded at 45,000 cells/well, 48 hours of exposure; for growth after re-plating without compound: then 96 hours in fresh media without compound",
  "description": "The 5,6-dihydroxy-hexan-2-one (1.2 grams) was dissolved in 12 ml of phosphate buffered saline and was filter sterilized through a 0.22 micrometer syringe filter prior to use. The 5,6-dihydroxy-hexan-2-one was further diluted to 10^−1, 10^−2, 10^−3, 10^−4, 10^−5, and 10^−6 using serial dilutions for the evaluation.\nNHDF were seeded at 45,000 cells/well in 24 well plate(s). Cells were grown for 72 hours, 48 hours of which was done in the presence of the test chemicals. 24 hours after seeding, 5,6-dihydroxy-hexan-2-one was added to the cell culture plates (2 ml/well). Assay plates were pulled for analysis at 24 and 48 hours after addition of the chemical compound. Samples were analyzed on the above-described assay as provided in the instructions for use of the assay.\nCell counts were taken after the cells had been plated for 72 hours and exposed to 5,6-dihydroxy-hexan-2-one for 48 hours.\nAfter 48 hours of exposure to 5,6-dihydroxy-hexan-2-one, a cell count was taken on the 10^−1 concentration group and the 10^−6 concentration group. The 10^−1 cell count was 45,000 cells/well and the 10^−6 cell count was 275,000 cells/well. The count for the 10^−1 concentration group yielded the same number of cells that were previously seeded, while the 10^−6 concentration group had continued to grow rapidly without problems. Cells from these two different groups were then plated out at the same density as before, but without exposure to 5,6-dihydroxy-hexan-2-one and in fresh media for 96 hours. Visual representations of these two groups can be seen in FIG. 5 (10^−1, exposed to 5,6-dihydroxy-hexan-2-one for 48 hours, continued the culture for an additional 96 hours without 5,6-dihydroxy-hexan-2-one) and FIG. 6 (10^−6, exposed to 5,6-dihydroxy-hexan-2-one for 48 hours, continued the culture for an additional 96 hours without 5,6-dihydroxy-hexan-2-one).",
  "data": [
    {"smiles": "CC(=O)CCC(O)CO", "note": "(stereo not drawn) [5,6-dihydroxy-hexan-2-one]", "values": [
      {"measurement": "cell count", "setting": "10^-1 concentration", "result": "45,000 cells/well"},
      {"measurement": "cell count", "setting": "10^-6 concentration", "result": "275,000 cells/well"},
      {"measurement": "growth after re-plating without compound", "setting": "NHDF, 10^-1, exposed 48 hours", "result": "impaired ability for cell proliferation"},
      {"measurement": "visual morphological study", "setting": "NHDF, 10^-1 concentration, 24 and 48 hours", "result": "signs of cell distress"},
      {"measurement": "visual physical cellular response", "setting": "NHDF, 10^-1 concentration, 48 hours", "result": "Fewer human dermal fibroblasts cells were observed"},
      {"measurement": "growth after re-plating without compound", "setting": "NHDF, 10^-6, exposed 48 hours", "result": "continued to grow without problems"}
    ]}
  ]
}
